Test results as given in ChEMBL document CHEMBL1121708, “Synthesis and study of the potential antiallergic activity of some pyrazole derivatives” (1981).

Legend:
[1] = system: Rattus norvegicus; assay: Compound was tested for inhibition of the rat passive cutaneous anaphylaxis (PCA) 3h after oral administration; >0<50; assay type: functional; design: concentration or dose not given beside the values
[2] = system: Rattus norvegicus; assay: Compound was tested for inhibition of the rat passive cutaneous anaphylaxis (PCA) 1 hr after oral administration; >0<50; assay type: functional; design: concentration or dose not given beside the values

Row | Compound | Inhibition [1] | Inhibition [2]
1 | c1ccc2c(c1)SCc1cn[nH]c1-2 | >0% | >0%
2 | Nc1ccc2[nH]ncc2c1 | 54% | >0%
3 | COc1cccc2c1CCc1c[nH]nc1-2 | >0% | 15%
4 | Oc1ccc2c(c1)CCc1c[nH]nc1-2 | >0% | >0%
5 | c1ccc2c(c1)CCc1c[nH]nc1-2 | >0% | >0%
6 | CCc1cc2c(cc1CC)-c1n[nH]cc1CC2 | >0% | >0%
7 | c1ccc2c(c1)CCCc1c[nH]nc1-2 | >0% | >0%
8 | COc1ccc2c(c1)CCc1c[nH]nc1-2 | >0% | >0%
9 | Oc1cccc2c1CCc1c[nH]nc1-2 | >0% | >0%
10 | COc1ccc2c(c1)-c1n[nH]cc1CC2 | >0% | 32%
11 | c1ccc2c(c1)OCc1cn[nH]c1-2 | >0% | >0%
12 | Oc1ccc2c(c1)-c1n[nH]cc1CC2 | >0% | >0%
13 | c1[nH]nc2c1CCC1c3n[nH]cc3CCC21 (stereo not drawn) | 55% | 77%
14 | CC1Cc2c[nH]nc2-c2ccccc21 (stereo not drawn) | >0% | >0%
